# Test results as given in US20060058350A1, “Alkynyl-substituted azasugar derivative and drug containing the same as the active ingredient” (Carna Biosciences, Inc., priority 2002, published 2006).
# Tests used:
# Type in all cases: biochemical
# MMP-1 = biological target: T1, MMP-1 (Homo sapiens, UniProt P03956); test: Measurement of matrix metalloprotease (MMP) inhibitory activity, MMP-1, fluorescence quenching peptide substrate; details: recombinant catalytic region of MMP-1; 37° C., 2 hours; Ki calculated from IC50 and Km; read-out: Ki MMP1
# T1 construct: A DNA fragment coding for catalytic regions in MMP-1 and MMP-9; histidine tag (N); made in house; host or cells: E. coli
# T1 sequence (P03956 98-276 limits assumed): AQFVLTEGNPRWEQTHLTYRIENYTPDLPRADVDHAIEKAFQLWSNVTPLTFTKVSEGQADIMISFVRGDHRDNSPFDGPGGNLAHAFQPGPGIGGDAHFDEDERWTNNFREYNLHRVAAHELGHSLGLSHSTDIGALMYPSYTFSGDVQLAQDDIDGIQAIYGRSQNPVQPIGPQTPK
# Protocol: (§1) A DNA fragment coding for catalytic regions in MMP-1 and MMP-9 was amplified by a PCR method with cDNA prepared from HT-1080 cells derived from human fibrosarcoma. In the same manner, a DNA fragment containing a pro-region and a catalyst region in MMP-3 was also prepared. The amplified DNA fragment was cloned into a commercially available expression vector which was designed to allow a histidine tag to add to the N-terminal, and then transformed into E. coli. The resulting transformants were cultured and a recombinant MMP was purified from a cell lysate using Ni-NTA regin (QIAGEN INC.). Recombinant MMP-3 was further activated by reacting with 1 mM para-aminophenyl mercury acetate at 37° C. for one hour.
# (§2) The inhibitory activity was measured according to the method by Night et al. [FEBS Lett. 296, p 263 (1992)] or the method by Nagase et al. [J. Biol. Chem. 269, p 20952 (1994)] using a 96-half well black microplate. A solution prepared by dissolving each of test compounds (a) to (f) in dimethyl sulfoxide was diluted with a reaction buffer [50 mM Tris-HCl (pH 7.5) buffer containing 150 mM NaCl, 10 mM CaCl2, 0.05% Brij-35®] and then 25 μL of the dilute solution was added in a well.
# (§3) After 25 μL of a MMP solution diluted with the reaction buffer was added thereto, the mixture was incubated at 37° C. for 10 minutes. Then, the reaction was initiated by adding 50 μL of a 10 μM fluorescence quenching peptide substrate prepared from the reaction buffer. As the fluorescence quenching peptide substrate, MCA-Pro-Leu-Gly-Leu-DPA-Ala-Arg-NH2 (MCA=7-methoxycoumarin-4-acetyl and DPA=N-3-(2,4-dinitrophenyl)-L-2,3-diaminopropionyl) were used for MMP-1 and MMP-9, and MCA-Arg-Pro-Lys-Pro-Val-Nva-Trp-Arg-Lys (DNP)-NH2 (DNP=2,4-dinitrophenyl) was used for MMP-3. A fluorescence intensity (excitation 320/fluoresecence 405 nm) immediately after the initiation of the reaction and a fluorescence intensity after the reaction at 37° C. (for 2 hours for MMP-1 and MMP-3, for 3 hours for MMP-9) were measured and a difference in fluorescence intensity was taken as an indicator of enzymatic activity. The inhibition rate (%) at each concentration of an inhibitor was calculated and an IC50 value was determined from the dose-response curve. From this IC50 value and previously determined Km value for a […] substrate, a Ki value was calculated using GraphPad Prism software (GraphPad Software, Inc.).
# MMP-3 = biological target: T2, MMP-3 (Homo sapiens, UniProt P08254); test: Measurement of matrix metalloprotease (MMP) inhibitory activity, MMP-3, fluorescence quenching peptide substrate; details: recombinant MMP-3 activated with para-aminophenyl mercury acetate; 37° C., 2 hours; Ki calculated from IC50 and Km; read-out: Ki MMP3
# T2 construct: a DNA fragment containing a pro-region and a catalyst region in MMP-3 was also prepared; histidine tag (N); made in house; host or cells: E. coli
# T2 sequence (P08254 100-272 limits assumed): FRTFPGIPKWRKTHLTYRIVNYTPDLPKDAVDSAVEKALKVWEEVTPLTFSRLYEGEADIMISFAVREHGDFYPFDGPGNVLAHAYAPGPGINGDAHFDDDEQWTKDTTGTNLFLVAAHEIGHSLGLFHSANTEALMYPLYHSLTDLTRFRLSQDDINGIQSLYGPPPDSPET
# Protocol: as §1, §2, §3
# [1] = biological target: T3, TNF-α converting enzyme (TACE) (Homo sapiens, UniProt P78536); test: Measurement of inhibitory activity against TNF-α converting enzyme (TACE), fluorescence quenching peptide substrate
# T3 construct: a DNA fragment cording a signal region, a pro-region and a catalytic region was amplified by a PCR method; FLAG octapeptide (C); made in house; host or cells: insect cells (baculovirus, pFastBac)
# T3 sequence (P78536 223-474 limits assumed): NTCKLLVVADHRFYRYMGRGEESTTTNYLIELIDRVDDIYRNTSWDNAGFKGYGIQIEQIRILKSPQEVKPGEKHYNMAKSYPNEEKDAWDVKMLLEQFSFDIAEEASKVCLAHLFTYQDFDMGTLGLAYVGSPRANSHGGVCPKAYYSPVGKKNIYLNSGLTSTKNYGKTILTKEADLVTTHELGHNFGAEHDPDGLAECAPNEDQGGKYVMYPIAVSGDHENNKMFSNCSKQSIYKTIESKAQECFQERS
# Protocol: A full length cDNA for TACE was cloned from THP-1 cells derived from human acute monocytic leukemia and a DNA fragment cording a signal region, a pro-region and a catalytic region was amplified by a PCR method. An appropriate restriction enzyme recognizing sequence was added to both terminals of the amplified fragment and also a sequence of an antigenic octapeptide (FLAG™) tag was inserted in the 3′ terminal. A recombinant bacmid was prepared from the resulting amplified fragment using a pFastBac system (Life Technologies) and then transfected into insect cells to generate a recombinant baculovirus. Insect cells were infected with the recombinant baculovirus and the recombinant TACE released into culture supernatant was purified by an affinity gel column.
# The inhibitory activity was measured according to the method by Van Dyke et al. [Bioorg. […] A solution prepared by dissolving each of test compounds (a) to (f) in dimethylsulfoxide was diluted with a reaction buffer [20 mM tris-HCl buffer (pH 7.5) containing 0.05% Brij-35®] and then 40 μL of the dilute solution was added in a well. […] The inhibition rate (%) at each concentration of an inhibitor was calculated and an IC50 value was determined from the dose-response curve. From this IC50 value and previously determined Km value for a TACE substrate, a Ki value was calculated using data processing software (GraphPad Prism™, GraphPad Software, Inc.).
# MMP-9 = biological target: T4, MMP-9 (Homo sapiens, UniProt P14780); test: Measurement of matrix metalloprotease (MMP) inhibitory activity, MMP-9, fluorescence quenching peptide substrate; details: read-out: Ki MMP9
# T4 construct: A DNA fragment coding for catalytic regions in MMP-1 and MMP-9; histidine tag (N); made in house; host or cells: E. coli
# T4 sequence (P14780 107-444 limits assumed): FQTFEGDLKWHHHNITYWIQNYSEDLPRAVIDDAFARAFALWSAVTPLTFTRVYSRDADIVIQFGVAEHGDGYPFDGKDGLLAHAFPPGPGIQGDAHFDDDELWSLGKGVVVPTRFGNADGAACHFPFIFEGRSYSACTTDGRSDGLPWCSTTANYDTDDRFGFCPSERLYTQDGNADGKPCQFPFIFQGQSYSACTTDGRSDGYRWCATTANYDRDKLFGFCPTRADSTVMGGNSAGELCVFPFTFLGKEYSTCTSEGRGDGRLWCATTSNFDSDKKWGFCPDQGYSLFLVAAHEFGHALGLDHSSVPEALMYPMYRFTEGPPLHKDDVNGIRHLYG
# Protocol: as §1, §2, §3
SMILES,Ki (MMP-1) [nM],Ki (MMP-3) [nM],Ki [1] [nM],Ki (MMP-9) [nM]
"CC#CCOc1ccc(S(=O)(=O)N2C[C@H](O)[C@H](O)[C@@H](OCC)[C@@H]2C(=O)NO)cc1 [Compound (e), (2R,3S,4S,5S)-1-(4′-but-2′-ynyloxybenzenesulfonyl)-4,5-dihydroxy-3-ethoxypiperidine-2-carboxylic acid hydroxamide]",> 850,> 650,8.5,> 790
"CO[C@@H]1[C@@H](O)[C@@H](O)CN(S(=O)(=O)c2ccc(OCC#CCO)cc2)[C@H]1C(=O)NO [Compound (f), (2R,3S,4S,5S)-4,5-dihydroxy-1-[4′-(4″-hydroxy-but-2′-ynyloxy)benzenesulfonyl]-3-methoxy-piperidine-2-carboxylic acid hydroxamide]",> 850,> 650,18,> 790
"CC#CCOc1ccc(S(=O)(=O)N2C[C@H](O)[C@H](O)[C@@H](OCc3ccccc3)[C@@H]2C(=O)NO)cc1 [Compound (b), (2R,3S,4S,5S)-3-benzyloxy-1-(4′-but-2′-ynyloxybenzenesulfonyl)-4,5-dihydroxypiperidine-2-carboxylic acid hydroxamide]",> 850,> 650,9.4,> 790

# Second part, the molecule after the results:
Ki (MMP-1) [nM],Ki (MMP-3) [nM],Ki [1] [nM],Ki (MMP-9) [nM],SMILES
> 850,> 650,4.3,> 790,"CC#CCOc1ccc(S(=O)(=O)N2C[C@H](O)[C@H](O)[C@@H](OC)[C@@H]2C(=O)NO)cc1 [Compound (a), (2R,3S,4S,5S)-1-(4′-but-2′-ynyloxybenzenesulfonyl)-4,5-dihydroxy-3-methoxypiperidine-2-carboxylic acid hydroxamide]"
> 850,> 650,2.4,> 790,"CC#CCOc1ccc(S(=O)(=O)N2C[C@H](OC)[C@H](O)[C@@H](O)[C@@H]2C(=O)NO)cc1 [Compound (c), (2R,3S,4R,5S)-1-(4′-but-2′-ynyloxybenzenesulfonyl)-3,4-dihydroxy-5-methoxypiperidine-2-carboxylic acid hydroxamide]"
> 850,490,,> 790,"CC#CCOc1ccc(S(=O)(=O)N2C[C@H](O)[C@H](O)[C@@H](O)[C@@H]2C(=O)NO)cc1 [Compound (d), (2R,3S,4S,5S)-1-(4′-but-2′-ynyloxybenzenesulfonyl)-3,4,5-trihydroxy-piperidine-2-carboxylic acid hydroxamide]"
